{"source": "patent US20090317496A1", "about": "“Method for Preventing and Treating the Disease Caused by Vascular Damage and the Use Thereof” (priority 2005, published 2009)", "key": {"[1]": {"system": "retinal vascular endothelial cell", "assay": "MTT assay, apoptosis of retinal vascular endothelial cell caused by the lack of serum", "assay_type": "cell-based, human", "conditions": "FBS free medium, 10 μg/ml, 24 hours; FIG. 3c", "description": "(§1) The HUVEC (human umbilical venous endothelial cell) and retinal vascular endothelial cell (cell-systems, USA) were incubated at M199 medium containing 20% (w/v) FBS (HyClone, Canada), 100 units/m ? of penicillin (Invitrogen, USA), 100 μg/m ? of streptomycin (Invitrogen, USA), 3 ng/m ? of bFGF (basic fibroblast growth factor, Upstate Biotechnology, USA) and 5 units/m ? of heparin (Life Technologies, USA) under 5% CO2 gas condition at 37° C. (See FIG. 2a and FIG. 2b).\n(§2) To investigate the suppression effect of SG was determined by (3-[4,5-dimethylthiazol-2-yl]-2,5-diphenyl tetrazolium bromide (MTT) assay method disclosed in the literature (Wang Z et al., Biol., Pharm. Bull., 24, pp 159-162, 2001).\n(§3) HUVEC and retinal vascular endothelial cell were spread on 24-well plates (3×10^4 cells/well) and were incubated for 24 hours. The mediums were substituted with new medium containing 20% (w/v) FBS and FBS free medium respectively. The FBS free medium was treated with various concentrations of SG, i.e., 0, 1, 5, 10, 20 μg/m ? . The medium was incubated for 24 hours. After the incubation, MTT assay was performed.\n(§4) To investigate the suppressive effect of SG, Rb1, Rg1, Re, Rg3, Rg5 and Rk1 on the cell apoptosis if retinal vascular endothelial cell caused by the lack of serum, the effect were determined by (3-[4,5-dimethylthiazol-2-yl]-2,5-diphenyl tetrazolium bromide (MTT) assay method disclosed in the literature (Wang Z et al., Biol., Pharm. Bull., 24, pp 159-162, 2001).\n(§5) HUVEC and retinal vascular endothelial cell were spread on 24-well plates (3×10^4 cells/well) and were incubated for 24 hours respectively. The mediums were substituted with new medium containing 20% (w/v) FBS and FBS free medium respectively. The FBS free medium was treated with 10 μg/m ? of SG, Rb1, Rg1, Re, Rg3, Rg5 and Rk1 and the medium was incubated for 24 hours. After the incubation, MTT assay was performed."}, "[2]": {"system": "HUVEC (human umbilical venous endothelial cell)", "assay": "MTT assay, apoptosis of HUVEC caused by the lack of serum", "assay_type": "cell-based", "conditions": "FBS free medium, 10 μg/ml, 24 hours; FIG. 3c", "description": "as §1, §2, §3, §4, §5"}, "[3]": {"system": "vascular endothelial cells (HUVEC)", "assay": "MTT assay, Rk1 on apoptosis of vascular endothelial cell caused by the lack of serum", "assay_type": "cell-based, human", "conditions": "FBS free medium, Rk1 0, 0.5, 1, 5, 10 μg/ml, 24 hours; FIG. 4", "description": "FIG. 4 is the result of MTT assay showing suppressive effect of Rk1 on the apoptosis of HUVEC in medium,\nas §3, with “Vascular” for “HUVEC and retinal vascular”, “Rk1,” for “SG,”, “0, 0.5,” for “0,”, “10” for “10, 20”, “and” for “. The medium was”"}, "[4]": {"system": "vascular endothelial cells (HUVEC)", "assay": "DAPI staining, DNA fragmentation of vascular endothelial cell caused by the lack of serum", "assay_type": "cell-based, human", "conditions": "FBS free medium, Rk1 0, 0.5, 1, 5, 10 μg/ml, 24 hours; FIG. 5", "description": "FIG. 5 is the result of staining with DAPI showing suppressive effect of Rk1 on the apoptosis of HUVEC in medium,\nVascular endothelial cell were spread on 35 mm dish (1.5×10^5 cells/well) and were incubated for 24 hours. The mediums were substituted with new medium containing 20% (w/v) FBS and FBS free medium respectively. The FBS free medium was treated with various concentrations of Rk1, i.e., 0, 0.5, 1, 5, 10 μg/m ? and incubated for 24 hours. After the incubation, the medium was washed with PBS solution 2 times, fixed with 2% of paraformaldehyde and washed with PBS solution 2 times again. DAPI (4′,6-Diamidino-2-phenylindole-2-HCl. Calbiochem, USA) solution was added thereto, incubated for 30 minutes in darkroom and washed with PBS two times. The DNA fragmentation was measured by fluorescent microscope (Fluorescent microscope, Axioplan2, ZEISS, Germany) after mounting with cover slip."}, "[5]": {"system": "tight junction proteins ZO-1, ZO-2 and occludin", "assay": "Western blot of tight junction proteins in human retinal vascular endothelial cells", "assay_type": "cell-based", "conditions": "human retinal endothelial cell, FIG. 6a", "description": "Human retinal vascular endothelial cell were spread on 60 mm dish (3×10^5 cells/well) and were incubated for 24 hours.\nThe cells were transferred to human endothelial SFM-basal growth medium (Invitrogen, USA), incubated for 24 hours and transferred to new human endothelial SFM-basal growth medium again. The medium was treated with 20 ng/m ? of VEGF (vascular endothelial growth factor) and Rk1, and incubated for 6 hours. After the incubation, the cells were collected to induce lysis and western blot analysis was performed."}, "[6]": {"system": "tight junction proteins ZO-1, ZO-2 and occludin", "assay": "Western blot of tight junction proteins in mouse retina", "assay_type": "in vivo, C57/BL6 mice", "conditions": "FIG. 6b"}, "[7]": {"system": "tight junction protein ZO-1, ZO-2 and occludin", "assay": "Immunocytochemistry of tight junction proteins in human retinal vascular endothelial cells", "assay_type": "cell-based", "conditions": "human retinal endothelial cell", "description": "Human retinal vascular endothelial cell were spread on 35 mm dish (2×10^5 cells/well) and were incubated for 24 hours. The cells were transferred to human endothelial SFM-basal growth medium (Invitrogen, USA), incubated for 24 hours and transferred to new human endothelial SFM-basal growth medium again. The medium was treated with 20 ng/m ? of VEGF (vascular endothelial growth factor) and Rk1, and incubated for 6 hours. After the incubation, the medium was washed with PBS solution and immunocytochemistry analysis was performed to determine the change of tight junction protein."}, "[8]": {"system": "tight junction protein ZO-1, ZO-2 and occludin", "assay": "Immunocytochemistry of tight junction proteins in mouse retina", "assay_type": "in vivo, C57/BL6 mice"}, "[9]": {"system": "retinal vessel of C57/BL6 mice", "assay": "Angiography with FITC-dextran, permeability of retinal vessel", "assay_type": "in vivo", "conditions": "FIG. 11", "description": "Both of 100 ng of VEGF and 30 μg of Rk1 were injected into the retina of C57/BL6 mice (Orient, Korea). After 24 hours, the mice were anesthetized and FITC-dextran was injected into the heart to allow fluorescent material to flow in blood. […] In the only VEGF-injected mice, it has been confirmed that the fluorescent material was exuded from neighboring tissues around blood vessel caused by the increased permeability of retinal vessel however the exudation in VEGF was recovered by the treatment of Rk1.\nLikewise, it has been also confirmed that the fluorescent material was exuded from neighboring tissues around blood vessel caused by the increased permeability of retinal vessel in diabetes induced mice however the exudation was recovered by the treatment of Rk1."}}, "data": [{"smiles": "CC(C)=CCC[C@](C)(O[C@@H]1O[C@H](CO[C@@H]2O[C@H](CO)[C@@H](O)[C@H](O)[C@H]2O)[C@@H](O)[C@H](O)[C@H]1O)[C@H]1CC[C@]2(C)[C@@H]1[C@H](O)C[C@@H]1[C@@]3(C)CC[C@H](O[C@@H]4O[C@H](CO)[C@@H](O)[C@H](O)[C@H]4O[C@@H]4O[C@H](CO)[C@@H](O)[C@H](O)[C@H]4O)C(C)(C)[C@@H]3CC[C@]12C", "note": "[Rb1, ginsenoside Rb1, reference compound]", "values": [{"measurement": "apoptosis and cell viability of retinal vascular endothelial cells (MTT assay)", "setting": "[1]", "result": "did not"}]}, {"smiles": "CC(C)=CCC[C@](C)(O[C@@H]1O[C@H](CO)[C@@H](O)[C@H](O)[C@H]1O)[C@H]1CC[C@]2(C)[C@@H]1[C@H](O)C[C@@H]1[C@@]3(C)CC[C@H](O)C(C)(C)[C@@H]3[C@@H](O[C@@H]3O[C@H](CO)[C@@H](O)[C@H](O)[C@H]3O[C@@H]3O[C@@H](C)[C@H](O)[C@@H](O)[C@H]3O)C[C@]12C", "note": "[Re, ginsenoside Re, reference compound]", "values": [{"measurement": "apoptosis and cell viability of retinal vascular endothelial cells (MTT assay)", "setting": "[1]", "result": "did not"}]}, {"smiles": "CC(C)=CCC[C@](C)(O[C@@H]1O[C@H](CO)[C@@H](O)[C@H](O)[C@H]1O)[C@H]1CC[C@]2(C)[C@@H]1[C@H](O)C[C@@H]1[C@@]3(C)CC[C@H](O)C(C)(C)[C@@H]3[C@@H](O[C@@H]3O[C@H](CO)[C@@H](O)[C@H](O)[C@H]3O)C[C@]12C", "note": "[Rg1, ginsenoside Rg1, reference compound]", "values": [{"measurement": "apoptosis and cell viability of retinal vascular endothelial cells (MTT assay)", "setting": "[1]", "result": "did not"}]}, {"smiles": "CC(C)=CCC[C@](C)(O)[C@H]1CC[C@]2(C)[C@@H]1[C@H](O)C[C@@H]1[C@@]3(C)CC[C@H](O[C@@H]4O[C@H](CO)[C@@H](O)[C@H](O)[C@H]4O[C@@H]4O[C@H](CO)[C@@H](O)[C@H](O)[C@H]4O)C(C)(C)[C@@H]3CC[C@]12C", "note": "[Rg3, ginsenoside Rg3]", "values": [{"measurement": "apoptosis and cell viability of HUVEC (MTT assay)", "setting": "[2]", "result": "inhibited the apoptosis"}, {"measurement": "apoptosis and cell viability of retinal vascular endothelial cells (MTT assay)", "setting": "[1]", "result": "inhibited the apoptosis"}]}, {"smiles": "CC(C)=CC/C=C(\\C)[C@H]1CC[C@]2(C)[C@@H]1[C@H](O)C[C@@H]1[C@@]3(C)CC[C@H](O[C@@H]4O[C@H](CO)[C@@H](O)[C@H](O)[C@H]4O[C@@H]4O[C@H](CO)[C@@H](O)[C@H](O)[C@H]4O)C(C)(C)[C@@H]3CC[C@]12C", "note": "[Rg5, ginsenoside Rg5]", "values": [{"measurement": "apoptosis and cell viability of HUVEC (MTT assay)", "setting": "[2]", "result": "inhibited the apoptosis"}, {"measurement": "apoptosis and cell viability of retinal vascular endothelial cells (MTT assay)", "setting": "[1]", "result": "inhibited the apoptosis"}]}, {"smiles": "C=C(CCC=C(C)C)[C@H]1CC[C@]2(C)[C@@H]1[C@H](O)C[C@@H]1[C@@]3(C)CC[C@H](O[C@@H]4O[C@H](CO)[C@@H](O)[C@H](O)[C@H]4O[C@@H]4O[C@H](CO)[C@@H](O)[C@H](O)[C@H]4O)C(C)(C)[C@@H]3CC[C@]12C", "note": "[Rk1, ginsenoside Rk1]", "values": [{"measurement": "apoptosis and cell viability of HUVEC (MTT assay)", "setting": "[2]", "result": "inhibited the apoptosis"}, {"measurement": "apoptosis and cell viability of retinal vascular endothelial cells (MTT assay)", "setting": "[1]", "result": "inhibited the apoptosis"}, {"measurement": "apoptosis and cell viability of vascular endothelial cells (MTT assay)", "setting": "[3]", "result": "inhibited the apoptosis"}, {"measurement": "DNA fragmentation of vascular endothelial cells (DAPI)", "setting": "[4]", "result": "suppressed the DNA fragmentation"}, {"measurement": "recovering effect on the decrease of tight junction proteins ZO-1, ZO-2 and occludin (western blot)", "setting": "[5]; decrease caused by AGE (advanced glycation end product)", "result": "potent recovering effect"}, {"measurement": "recovering effect on the decrease of tight junction proteins ZO-1, ZO-2 and occludin (western blot)", "setting": "[5]; decrease caused by VEGF 20 ng/ml, 6 hours", "result": "potent recovering effect"}, {"measurement": "recovering effect on the decrease of tight junction proteins ZO-1, ZO-2 and occludin (western blot)", "setting": "[6]; decrease caused by VEGF 100 ng, 30 μg Rk1 injected into the retina, 24 hours, mouse", "result": "potent recovering effect"}, {"measurement": "recovering effect on the decrease of tight junction proteins ZO-1, ZO-2 and occludin (western blot)", "setting": "[6]; decrease caused by diabetes, mouse retina", "result": "potent recovering effect"}, {"measurement": "recovering effect on the decrease of tight junction protein ZO-1, ZO-2 and occludin (immunocytochemistry)", "setting": "[7]; decrease caused by AGE, FIG. 7", "result": "potent recovering effect"}, {"measurement": "recovering effect on the decrease of tight junction protein ZO-1, ZO-2 and occludin (immunocytochemistry)", "setting": "[7]; decrease caused by VEGF 20 ng/ml, 6 hours, FIG. 8", "result": "potent recovering effect"}, {"measurement": "recovering effect on the decrease of tight junction protein ZO-1, ZO-2 and occludin (immunocytochemistry)", "setting": "[8]; decrease caused by VEGF 100 ng, 30 μg Rk1 injected into the retina, 24 hours, mouse, FIG. 9", "result": "potent recovering effect"}, {"measurement": "recovering effect on the decrease of tight junction protein ZO-1, ZO-2 and occludin (immunocytochemistry)", "setting": "[8]; decrease caused by diabetes, mouse retina, FIG. 10", "result": "potent recovering effect"}, {"measurement": "exudation of fluorescent material (increased permeability of retinal vessel), angiography", "setting": "[9]; VEGF 100 ng and 30 μg Rk1 injected into the retina, 24 hours, mouse", "result": "recovered"}, {"measurement": "exudation of fluorescent material (increased permeability of retinal vessel), angiography", "setting": "[9]; diabetes induced mice", "result": "recovered"}]}]}
